Source: article PMC6437697 (Journal of Medicinal Chemistry, 2019)

How the values were obtained:
Assay in all cases: KINOMEscan
Assay type in all cases: binding
Details in all cases: read-out: % control activity remaining
[1] = biological target: T1, MERTK (Homo sapiens, UniProt Q12866)
T1 construct: purchased Eurofins DiscoverX KINOMEscan
T1 sequence (Q12866 21-999): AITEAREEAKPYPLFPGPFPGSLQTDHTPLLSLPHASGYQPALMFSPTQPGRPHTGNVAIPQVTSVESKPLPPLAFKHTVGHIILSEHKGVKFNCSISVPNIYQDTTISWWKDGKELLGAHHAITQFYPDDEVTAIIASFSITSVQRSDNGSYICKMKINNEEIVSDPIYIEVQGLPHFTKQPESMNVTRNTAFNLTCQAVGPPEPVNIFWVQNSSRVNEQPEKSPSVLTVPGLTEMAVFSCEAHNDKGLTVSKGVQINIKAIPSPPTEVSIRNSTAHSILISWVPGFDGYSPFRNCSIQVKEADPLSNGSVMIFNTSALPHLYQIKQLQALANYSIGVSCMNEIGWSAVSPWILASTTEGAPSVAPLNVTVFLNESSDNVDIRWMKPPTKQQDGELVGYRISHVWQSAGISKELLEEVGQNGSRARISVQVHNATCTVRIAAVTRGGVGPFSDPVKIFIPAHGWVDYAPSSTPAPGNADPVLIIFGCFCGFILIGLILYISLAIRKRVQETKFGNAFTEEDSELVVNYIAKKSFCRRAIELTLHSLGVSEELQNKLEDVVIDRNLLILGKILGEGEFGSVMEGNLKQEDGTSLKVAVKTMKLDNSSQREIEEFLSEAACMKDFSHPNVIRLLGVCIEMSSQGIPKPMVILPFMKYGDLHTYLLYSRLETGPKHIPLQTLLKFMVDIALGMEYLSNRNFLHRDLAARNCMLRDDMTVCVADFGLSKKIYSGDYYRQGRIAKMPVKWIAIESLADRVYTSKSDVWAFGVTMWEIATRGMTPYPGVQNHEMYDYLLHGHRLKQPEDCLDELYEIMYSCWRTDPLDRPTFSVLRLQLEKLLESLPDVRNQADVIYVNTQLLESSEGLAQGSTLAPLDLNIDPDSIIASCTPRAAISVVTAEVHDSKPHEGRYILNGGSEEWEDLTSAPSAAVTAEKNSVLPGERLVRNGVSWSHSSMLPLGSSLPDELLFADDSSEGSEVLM

[2] = biological target: T2, PRKD1 (Homo sapiens, UniProt Q15139)
T2 construct: purchased Eurofins DiscoverX KINOMEscan
T2 sequence (Q15139 1-912): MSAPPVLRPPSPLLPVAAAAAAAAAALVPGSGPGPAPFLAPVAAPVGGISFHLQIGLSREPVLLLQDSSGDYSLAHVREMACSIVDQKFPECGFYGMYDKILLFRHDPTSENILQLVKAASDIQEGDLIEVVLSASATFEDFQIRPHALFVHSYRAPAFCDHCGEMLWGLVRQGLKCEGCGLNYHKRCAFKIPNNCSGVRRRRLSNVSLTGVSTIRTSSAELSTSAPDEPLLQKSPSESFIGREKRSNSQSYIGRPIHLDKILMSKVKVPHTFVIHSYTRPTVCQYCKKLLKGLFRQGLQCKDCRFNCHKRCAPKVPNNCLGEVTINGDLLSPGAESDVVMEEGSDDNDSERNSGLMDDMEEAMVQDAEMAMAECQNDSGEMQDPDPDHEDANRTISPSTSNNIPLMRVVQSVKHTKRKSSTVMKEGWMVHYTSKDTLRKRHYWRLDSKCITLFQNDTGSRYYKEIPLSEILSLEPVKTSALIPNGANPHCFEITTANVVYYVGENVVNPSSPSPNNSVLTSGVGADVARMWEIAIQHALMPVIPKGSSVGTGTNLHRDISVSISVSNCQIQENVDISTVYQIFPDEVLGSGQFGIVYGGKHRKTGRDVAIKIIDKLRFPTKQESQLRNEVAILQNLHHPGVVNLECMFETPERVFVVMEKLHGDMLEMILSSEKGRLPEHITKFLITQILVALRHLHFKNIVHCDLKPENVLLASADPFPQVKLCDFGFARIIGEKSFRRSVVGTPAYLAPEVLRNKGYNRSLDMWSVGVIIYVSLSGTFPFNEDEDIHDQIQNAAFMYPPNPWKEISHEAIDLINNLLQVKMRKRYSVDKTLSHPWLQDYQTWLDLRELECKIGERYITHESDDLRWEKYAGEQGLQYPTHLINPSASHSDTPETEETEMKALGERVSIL

[3] = biological target: T3, RSK4(Kin.Dom.2-C-terminal) (Homo sapiens, UniProt Q9UK32)
T3 construct: RSK4(Kin.Dom.2-C-terminal); purchased Eurofins DiscoverX KINOMEscan
T3 sequence (Q9UK32 426-683 limits assumed): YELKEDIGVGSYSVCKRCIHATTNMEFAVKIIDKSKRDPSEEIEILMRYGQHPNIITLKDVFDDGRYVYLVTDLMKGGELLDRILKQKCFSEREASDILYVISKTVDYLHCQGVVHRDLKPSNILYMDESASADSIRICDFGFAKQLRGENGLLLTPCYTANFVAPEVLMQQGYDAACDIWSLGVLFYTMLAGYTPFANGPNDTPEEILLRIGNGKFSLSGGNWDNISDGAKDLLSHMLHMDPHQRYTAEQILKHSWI

Row | SMILES | remaining binding at 1 µM [1] [%] | remaining binding at 1 µM [2] [%] | remaining binding at 1 µM [3] [%]
1 | Clc1cc(NCC2CC2)c2ncc(-c3ccc4[nH]ncc4c3)n2n1 [compound 2, 6-Chloro-N-(cyclopropylmethyl)-3-(1H-indazol-5-yl)imidazo[1,2-b]pyridazin-8-amine] | 100 | 100 | 92
2 | O=C(CN1CCOCC1)N[C@H]1CC[C@H](Nc2cc(Cl)nn3c(-c4ccc5[nH]ncc5c4)cnc23)CC1 [compound 26] | 70 | 98 | 56
3 | CN1CCC(CNc2cc(Cl)nn3c(-c4cc5nc(Nc6ccccc6)[nH]c5cc4F)cnc23)CC1 [compound 31, 6-Chloro-3-(6-fluoro-2-(phenylamino)-1H-benzo[d]imidazol-5-yl)-N-((1-methylpiperidin-4-yl)methyl)imidazo[1,2-b]pyridazin-8-amine] | 82 | 99 | 88
